Measurements reported in ChEMBL document CHEMBL6121021, “Design and Synthesis of Topoisomerases-Histone Deacetylase Dual Targeted Quinoline-Bridged Hydroxamates as Anticancer Agents” (J Med Chem, 2025).
Calls of active or inactive are those of the source. The calls are words filed in the database; no cut-off is given here.

How the values were obtained:
[1] = tested on: A549; assay: In vivo induction of apoptosis in human A549 cells xenografted in athymic nude Crl:NU-Foxn1nu mouse assessed as increase in Bax level at 30 mg/kg, po administered twice a week for 1 month by immunoblot analysis; format: functional, organism-based; settings: time 1.0 months
[2] = tested on: A549; assay: In vivo induction of apoptosis in human A549 cells xenografted in athymic nude Crl:NU-Foxn1nu mouse assessed as increase in Bcl-2 level at 30 mg/kg, po administered twice a week for 1 month by immunoblot analysis; format: functional, organism-based; settings: time 1.0 months
[3] = Drug metabolism in human hepatocytes assessed as O-dealkylation M5 metabolite formation at 10 uM by LC-MS/MS analysis; format: ADME, cell-based, Hepatocyte
[4] = target: Polyamine deacetylase HDAC10 (Homo sapiens, UniProt Q969S8); assay: Inhibition of N-terminal FLAG-tagged recombinant human HDAC10 (2 to 631 residues) extracted from baculovirus infected Sf9 cells by fluorogenic assay
Sequence of Polyamine deacetylase HDAC10 (Q969S8 whole entry, the tested form may be a part): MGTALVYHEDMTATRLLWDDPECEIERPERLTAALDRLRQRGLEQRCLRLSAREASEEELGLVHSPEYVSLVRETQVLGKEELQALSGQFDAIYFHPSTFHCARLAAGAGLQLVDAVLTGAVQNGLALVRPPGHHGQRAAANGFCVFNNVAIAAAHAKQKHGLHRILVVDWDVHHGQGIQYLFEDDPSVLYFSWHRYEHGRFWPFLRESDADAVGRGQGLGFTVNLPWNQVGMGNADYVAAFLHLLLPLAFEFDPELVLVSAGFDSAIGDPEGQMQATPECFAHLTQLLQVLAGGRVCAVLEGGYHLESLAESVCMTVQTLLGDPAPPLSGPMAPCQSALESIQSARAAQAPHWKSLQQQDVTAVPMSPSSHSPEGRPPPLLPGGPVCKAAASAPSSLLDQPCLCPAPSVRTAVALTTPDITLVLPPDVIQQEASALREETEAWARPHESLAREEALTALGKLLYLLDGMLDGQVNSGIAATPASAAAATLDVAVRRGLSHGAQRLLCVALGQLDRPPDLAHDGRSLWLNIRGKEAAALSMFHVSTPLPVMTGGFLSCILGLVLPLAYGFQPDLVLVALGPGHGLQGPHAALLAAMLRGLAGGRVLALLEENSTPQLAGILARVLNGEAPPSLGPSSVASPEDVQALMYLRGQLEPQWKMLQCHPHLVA

[5] = Drug metabolism in human hepatocytes assessed as direct glucuronide conjugate M9 metabolite formation at 10 uM by LC-MS/MS analysis; format: ADME, cell-based, Hepatocyte
[6] = tested on: A549; assay: Induction of cell cycle arrest in human A549 cells assessed as accumulation at G1 phase at 500 nM by PI staining based flow cytometry; format: functional
[7] = Toxicity in athymic nude Crl:NU-Foxn1nu mouse xenografted with human A549 cells assessed as animal survival at 30 mg/kg, po administered twice a week for 1 month; format: organism-based; settings: in vivo, 730 h, time 1 months
[8] = target: Histone deacetylase 11 (Homo sapiens, UniProt Q96DB2); assay: Inhibition of recombinant human HDAC11 by fluorogenic assay
Sequence of Histone deacetylase 11 (Q96DB2 whole entry): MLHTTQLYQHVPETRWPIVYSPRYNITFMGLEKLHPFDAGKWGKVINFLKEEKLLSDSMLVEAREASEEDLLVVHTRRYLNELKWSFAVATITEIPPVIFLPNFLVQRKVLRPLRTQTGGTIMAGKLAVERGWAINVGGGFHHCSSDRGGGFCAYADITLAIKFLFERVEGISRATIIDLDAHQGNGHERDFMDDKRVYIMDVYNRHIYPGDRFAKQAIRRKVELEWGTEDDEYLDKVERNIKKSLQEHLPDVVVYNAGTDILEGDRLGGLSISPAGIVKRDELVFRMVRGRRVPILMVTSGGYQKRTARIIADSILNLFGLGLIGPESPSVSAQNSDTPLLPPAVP

[9] = tested on: A549; assay: In vivo anti-migratory activity in human A549 cells xenografted in athymic nude Crl:NU-Foxn1nu mouse assessed as decrease in vimentin mRNA level at 30 mg/kg, po administered twice a week for 1 month by qPCR analysis; format: functional, organism-based; settings: time 1.0 months
[10] = Antiproliferative activity against human PBMC cells at 10 uM incubated for 48 hrs by MTT assay; format: toxicity, cell-based
[11] = target: Histone deacetylase 9 (Homo sapiens, UniProt Q9UKV0); assay: Inhibition of His-tagged recombinant human HDAC9 by fluorogenic assay
Sequence of Histone deacetylase 9 (Q9UKV0 whole entry): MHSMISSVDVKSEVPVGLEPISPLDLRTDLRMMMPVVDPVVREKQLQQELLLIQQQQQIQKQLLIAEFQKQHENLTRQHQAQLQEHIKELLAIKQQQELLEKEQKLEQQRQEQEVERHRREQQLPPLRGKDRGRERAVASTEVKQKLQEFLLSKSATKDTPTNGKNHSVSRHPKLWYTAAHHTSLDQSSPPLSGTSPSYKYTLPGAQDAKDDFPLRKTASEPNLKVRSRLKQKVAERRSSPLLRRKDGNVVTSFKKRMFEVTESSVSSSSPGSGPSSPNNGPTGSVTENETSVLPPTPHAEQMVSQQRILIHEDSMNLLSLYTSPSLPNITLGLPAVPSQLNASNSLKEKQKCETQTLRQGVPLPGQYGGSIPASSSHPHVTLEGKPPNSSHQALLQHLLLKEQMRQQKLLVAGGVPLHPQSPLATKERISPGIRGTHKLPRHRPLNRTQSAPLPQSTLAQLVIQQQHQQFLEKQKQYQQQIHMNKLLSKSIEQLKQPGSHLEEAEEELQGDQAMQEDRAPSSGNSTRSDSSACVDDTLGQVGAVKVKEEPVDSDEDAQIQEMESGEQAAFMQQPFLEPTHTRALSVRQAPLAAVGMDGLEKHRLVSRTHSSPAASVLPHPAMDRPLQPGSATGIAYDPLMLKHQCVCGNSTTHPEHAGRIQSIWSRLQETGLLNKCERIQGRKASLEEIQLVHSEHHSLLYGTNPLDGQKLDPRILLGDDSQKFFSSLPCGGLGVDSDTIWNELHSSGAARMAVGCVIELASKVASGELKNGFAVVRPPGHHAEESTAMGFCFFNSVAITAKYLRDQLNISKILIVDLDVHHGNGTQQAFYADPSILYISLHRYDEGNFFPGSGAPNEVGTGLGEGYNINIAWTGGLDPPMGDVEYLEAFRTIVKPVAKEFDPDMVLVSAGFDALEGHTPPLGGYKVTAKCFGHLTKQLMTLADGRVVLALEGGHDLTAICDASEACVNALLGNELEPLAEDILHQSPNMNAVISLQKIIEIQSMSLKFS

[12] = tested on: A549; assay: Induction of apoptosis in human A549 cells at 500 nM by Annexin-V/PI staining based flow cytometry; format: functional, cell-based
[13] = tested on: A549; assay: In vivo anti-metastatic activity in human A549 cells xenografted in athymic nude Crl:NU-Foxn1nu mouse assessed as decrease in ZEB1 mRNA level at 30 mg/kg, po administered twice a week for 1 month by qPCR analysis; format: functional, organism-based; settings: time 1.0 months
[14] = target: Histone deacetylase 2 (Homo sapiens, UniProt Q92769)
Sequence of Histone deacetylase 2 (Q92769 whole entry): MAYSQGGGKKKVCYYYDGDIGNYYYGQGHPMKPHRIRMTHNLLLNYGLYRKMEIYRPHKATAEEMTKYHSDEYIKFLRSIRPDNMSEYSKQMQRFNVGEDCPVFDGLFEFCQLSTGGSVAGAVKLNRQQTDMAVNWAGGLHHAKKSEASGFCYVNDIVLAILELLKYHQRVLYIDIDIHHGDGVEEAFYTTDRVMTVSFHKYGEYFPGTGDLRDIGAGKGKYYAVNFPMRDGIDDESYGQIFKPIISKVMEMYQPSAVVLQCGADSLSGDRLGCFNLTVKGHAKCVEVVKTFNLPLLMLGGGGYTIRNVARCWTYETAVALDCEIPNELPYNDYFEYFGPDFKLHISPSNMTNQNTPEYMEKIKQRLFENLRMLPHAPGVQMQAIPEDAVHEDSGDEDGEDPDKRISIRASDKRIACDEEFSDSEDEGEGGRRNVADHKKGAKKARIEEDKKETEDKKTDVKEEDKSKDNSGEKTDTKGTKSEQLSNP

[15] = tested on: A549; assay: Antitumor activity against human A549 cells xenografted in athymic nude Crl:NU-Foxn1nu mouse assessed as tumor regression at 30 mg/kg, po administered twice a week for 1 month; format: functional, organism-based; settings: time 1.0 months
[16] = Antiproliferative activity against human NCI-H1975 cells harboring EGFR T790M mutant incubated for 48 hrs by MTT assay; format: functional, cell-based; settings: NCI-H1975, 48 h
[17] = target: Histone deacetylase 4 (Homo sapiens, UniProt P56524); assay: Inhibition of His/GST-tagged recombinant human HDAC4 by fluorogenic assay
[18] = target: Histone deacetylase 3/Nuclear receptor corepressor 2 (HDAC3/NCoR2) (Homo sapiens, UniProt O15379); assay: Inhibition of His/GST-tagged recombinant human HDAC3/NcoR2 by fluorogenic assay; format: protein-complex assay
[19] = Drug metabolism in human hepatocytes assessed as beta-oxidation M2 metabolite formation at 10 uM by LC-MS/MS analysis; format: ADME, cell-based, Hepatocyte
[20] = target: Cytochrome P450 2C19 (Homo sapiens, UniProt P33261); assay: Inhibition of CYP2C19 in human liver microsomes preincubated for 10 mins followed by NADPH addition measured after 5 mins by LC-MS/MS analysis; format: ADME, Microsome
Sequence of Cytochrome P450 2C19 (P33261 whole entry): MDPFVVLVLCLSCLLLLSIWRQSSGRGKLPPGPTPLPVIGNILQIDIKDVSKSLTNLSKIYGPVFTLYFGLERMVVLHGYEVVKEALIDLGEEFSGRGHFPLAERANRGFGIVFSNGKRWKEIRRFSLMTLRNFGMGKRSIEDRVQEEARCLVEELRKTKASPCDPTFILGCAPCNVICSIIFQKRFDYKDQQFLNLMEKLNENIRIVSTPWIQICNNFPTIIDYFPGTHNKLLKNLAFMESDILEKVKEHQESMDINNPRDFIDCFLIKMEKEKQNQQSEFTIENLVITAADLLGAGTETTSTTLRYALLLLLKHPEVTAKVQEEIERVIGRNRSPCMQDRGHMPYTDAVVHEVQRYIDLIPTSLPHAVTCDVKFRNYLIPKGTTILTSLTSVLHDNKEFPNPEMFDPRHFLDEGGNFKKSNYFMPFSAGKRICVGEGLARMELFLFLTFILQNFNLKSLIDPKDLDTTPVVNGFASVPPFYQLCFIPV

[21] = tested on: A549; assay: In vivo cytotoxicity against human A549 cells xenografted in athymic nude Crl:NU-Foxn1nu mouse at 15 to 30 mg/kg, po administered twice a week for 1 month; format: functional, organism-based; settings: dose 15-30 mg/kg, time 1.0 months
[22] = target: DNA topoisomerase 2-alpha (Homo sapiens, UniProt P11388); assay: Inhibition of human Topo II-alpha-mediated decatenation of kDNA incubated for 30 mins
Sequence of DNA topoisomerase 2-alpha (P11388 whole entry): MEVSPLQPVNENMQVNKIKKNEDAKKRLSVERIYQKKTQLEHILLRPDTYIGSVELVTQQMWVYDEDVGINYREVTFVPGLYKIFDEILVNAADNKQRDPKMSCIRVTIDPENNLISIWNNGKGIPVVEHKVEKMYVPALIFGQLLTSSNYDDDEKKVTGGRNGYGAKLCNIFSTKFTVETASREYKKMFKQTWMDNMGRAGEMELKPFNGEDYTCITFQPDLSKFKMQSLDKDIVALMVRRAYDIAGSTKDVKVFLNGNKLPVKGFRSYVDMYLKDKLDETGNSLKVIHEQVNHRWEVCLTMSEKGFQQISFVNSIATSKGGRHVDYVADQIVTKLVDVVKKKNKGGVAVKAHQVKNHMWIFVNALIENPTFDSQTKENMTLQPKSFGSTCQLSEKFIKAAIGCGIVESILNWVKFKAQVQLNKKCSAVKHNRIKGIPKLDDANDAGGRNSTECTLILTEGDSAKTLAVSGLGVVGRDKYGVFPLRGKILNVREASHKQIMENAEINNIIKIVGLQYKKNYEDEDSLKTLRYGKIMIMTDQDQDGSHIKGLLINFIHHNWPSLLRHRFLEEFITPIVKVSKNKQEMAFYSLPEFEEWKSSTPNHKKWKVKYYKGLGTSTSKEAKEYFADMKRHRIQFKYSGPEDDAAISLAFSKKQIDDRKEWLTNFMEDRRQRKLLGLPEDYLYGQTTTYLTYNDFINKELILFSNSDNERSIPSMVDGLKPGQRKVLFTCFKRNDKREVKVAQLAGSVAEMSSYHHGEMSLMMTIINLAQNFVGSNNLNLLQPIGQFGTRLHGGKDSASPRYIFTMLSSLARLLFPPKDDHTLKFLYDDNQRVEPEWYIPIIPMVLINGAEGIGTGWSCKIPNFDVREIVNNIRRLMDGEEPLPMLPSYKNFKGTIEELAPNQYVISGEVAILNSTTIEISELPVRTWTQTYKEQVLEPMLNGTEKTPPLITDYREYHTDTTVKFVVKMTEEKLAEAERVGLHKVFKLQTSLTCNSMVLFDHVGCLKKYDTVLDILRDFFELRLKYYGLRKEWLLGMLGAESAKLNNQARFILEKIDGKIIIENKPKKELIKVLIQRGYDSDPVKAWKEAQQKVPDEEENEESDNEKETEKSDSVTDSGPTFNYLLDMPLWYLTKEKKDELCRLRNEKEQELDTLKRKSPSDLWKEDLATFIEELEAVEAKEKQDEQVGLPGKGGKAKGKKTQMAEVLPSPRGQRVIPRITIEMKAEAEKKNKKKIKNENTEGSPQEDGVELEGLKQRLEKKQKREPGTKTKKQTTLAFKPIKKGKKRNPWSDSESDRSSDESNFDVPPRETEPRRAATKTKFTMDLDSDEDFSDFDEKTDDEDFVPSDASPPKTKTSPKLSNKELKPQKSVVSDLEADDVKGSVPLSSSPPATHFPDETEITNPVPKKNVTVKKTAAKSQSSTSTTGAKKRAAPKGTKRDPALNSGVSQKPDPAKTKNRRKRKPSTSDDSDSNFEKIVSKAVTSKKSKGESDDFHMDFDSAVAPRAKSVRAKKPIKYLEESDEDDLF

[23] = tested on: MDA-MB-231; assay: Anti-cancer activity against human MDA-MB-231 cells assessed as decrease in p53 level at 5 to 10 uM incubated for 48 hrs by immunoblot analysis; format: functional, cell-based; settings: dose 5-10 µM
[24] = tested on: MDA-MB-231; assay: Anti-cancer activity against human MDA-MB-231 cells assessed as decrease in PCNA level at 10 uM incubated for 48 hrs by immunoblot analysis; format: functional, cell-based
[25] = tested on: MDA-MB-231; assay: Anti-cancer activity against human MDA-MB-231 cells assessed as decrease in p21 level at 1 uM incubated for 48 hrs by immunoblot analysis; format: functional, cell-based
[26] = tested on: MDA-MB-231; assay: Anti-cancer activity against human MDA-MB-231 cells assessed as decrease in CDK-4 level at 10 uM incubated for 48 hrs by immunoblot analysis; format: functional, cell-based
[27] = tested on: A549; assay: Induction of apoptosis in human A549 cells by Annexin-V/PI staining based flow cytometry; format: functional, cell-based
[28] = tested on: MDA-MB-231; assay: Anti-cancer activity against human MDA-MB-231 cells assessed as decrease in p53 level at 10 uM incubated for 48 hrs by immunoblot analysis; format: functional, cell-based
[29] = tested on: A549; assay: Induction of cell cycle arrest in human A549 cells assessed as accumulation at G2/M phase by PI staining based flow cytometry; format: functional

COc1ccc(-c2ccc3cc(OCCCCCC(=O)NO)ccc3n2)cc1
Activity [1]: Active
Activity [2]: Active
Drug metabolism [3]: metabolite_detected
IC50 [4]: 0.0871 µM
Drug metabolism [5]: metabolite_detected
Activity [6]: Active
Activity [7]: Non-toxic
IC50 [8]: 0.0581 µM
Activity [9]: Active
Activity [10]: Non-toxic
IC50 [11]: > 0.1 µM
Activity [12]: Active
Activity [13]: Active
IC50 [14]: 0.0774 µM
Activity [15]: Active; Exerted Maximum Effect
IC50 [16]: < 0.25 µM
IC50 [17]: 0.099 µM
IC50 [18]: 0.0883 µM
Drug metabolism [19]: metabolite_detected
IC50 [20]: 18 µM
Activity [21]: Active
IC50 [22]: 67.8 µM
Activity [23]: inactive

COc1ccc(-c2ccc3ccc(OCCCCCCC(=O)NO)cc3n2)cc1I
Activity [24]: Active
Activity [25]: inactive
Activity [26]: Active
Activity [27]: Active
Activity [28]: inactive
Activity [29]: Active
